What is called EC50 is the concentration giving half of the maximal effect.

Structures are written as SMILES.

Results on one molecule are retold here after PMC8380212, “^18F-labeled tracers targeting fibroblast activation protein” (EJNMMI Radiopharmacy and Chemistry, 2021).

In data set [1] the target is T1, CD26 expressing HEK-CD26 cells (Homo sapiens, UniProt P27487).
T1 construct: expressed in transfected cells; host or cells: HEK cells transfected with CD26/DPP4 (HEK-CD26)
Description: In vitro binding on HEK-CD26 cells (negative control). The class given is cell-based. How it is done: (§1) The binding properties of the FAPI derivatives were evaluated using the FAP‐transfected HT‐1080‐FAP and CD26 expressing HEK-CD26 cells. All cells were cultivated in Dulbecco's modified Eagle's medium (DMEM) containing 10% fetal calf serum (FCS) at 37 °C/5% carbon dioxide. Cells were seeded in 6-well plates and cultivated to a final confluence of approximately 80–90% (1.2 to 2.0 × 10^6 cells/well). After washing with FCS free medium, for each well ca. 3 kBq of the radiolabeled compound (10–20 GBq/µmol for [^18F]AlF-labeling) was added to the cells in FCS free medium. On completion of the individual incubation time, cells were washed with PBS and treated with 1.4 mL lysis buffer (0.3 m NaOH, 0.2% SDS) before being transferred to measuring tubes. Competition experiments were performed by co-incubation with the unlabeled precursor for 60 min. Radioactivity was determined in a Wizard Gamma Counter (Perkin Elmer), normalized to 10^6 cells and calculated as percentage of the applied dose (%AD). Each experiment was performed in triplicate.

For another data set, the target named is T2, FAP (HT-1080-FAP cells) (Homo sapiens, UniProt Q12884).
T2 construct: expressed in transfected cells; host or cells: HT-1080 cells transfected with FAP (HT-1080-FAP)
T2 sequence (Q12884 1-760): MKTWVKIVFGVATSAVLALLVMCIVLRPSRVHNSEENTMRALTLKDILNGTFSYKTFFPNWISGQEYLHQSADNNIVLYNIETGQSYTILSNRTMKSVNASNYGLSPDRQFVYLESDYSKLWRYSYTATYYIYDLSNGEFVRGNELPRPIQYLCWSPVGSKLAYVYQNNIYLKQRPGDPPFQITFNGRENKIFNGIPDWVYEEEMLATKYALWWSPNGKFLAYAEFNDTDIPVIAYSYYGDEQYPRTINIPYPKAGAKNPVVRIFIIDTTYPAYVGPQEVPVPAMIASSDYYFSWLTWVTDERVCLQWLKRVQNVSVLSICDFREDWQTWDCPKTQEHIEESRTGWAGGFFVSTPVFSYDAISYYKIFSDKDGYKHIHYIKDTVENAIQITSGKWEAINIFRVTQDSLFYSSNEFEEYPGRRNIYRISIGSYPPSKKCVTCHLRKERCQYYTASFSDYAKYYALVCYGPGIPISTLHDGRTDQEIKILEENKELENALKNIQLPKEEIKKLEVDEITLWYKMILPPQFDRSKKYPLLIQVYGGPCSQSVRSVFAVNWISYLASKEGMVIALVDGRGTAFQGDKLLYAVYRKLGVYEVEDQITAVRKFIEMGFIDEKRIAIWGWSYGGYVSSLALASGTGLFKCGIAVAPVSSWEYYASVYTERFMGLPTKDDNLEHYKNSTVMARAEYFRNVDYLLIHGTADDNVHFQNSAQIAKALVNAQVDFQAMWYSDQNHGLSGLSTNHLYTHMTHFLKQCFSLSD
Description: Competition experiments with unlabeled precursor on HT-1080-FAP cells. The class given is binding. Particulars: co-incubation with unlabeled precursor for 60 min. How it is done: as §1

The subject of data set [2] is HT-1080-FAP xenografts. Put plainly: Small animal PET imaging. The class given is in vivo, BALB/c nu/nu mice. The procedure: (§2) Eight-week-old BALB/c nu/nu mice (Charles River) were subcutaneously inoculated with 5 × 10^6 HT-1080-FAP cells. The subcutaneous xenografts were grown at the flanks of the mice. Xenografts were grown to a tumor diameter of 10–15 mm. Mice were anesthetized using isoflurane inhalation. 5–10 MBq of the [^18F]AlF-labeled compounds/ the respective tracer (FAPI-42/52/74/75/76; approx. 0.5 nmol; Am approximately 10–20 GBq/µmol) were injected intravenously for PET imaging. In vivo competition (blocking) experiments with ^68 Ga-FAPI-74 (9 MBq; 18.2 GBq/µmol) were performed by adding 30 nmol of unlabeled FAPI-74 to the injection solution. Images were acquired using a small-animal PET scanner (Inveon, Siemens). Within the first 60 min p.i., a dynamic scan was performed in list mode, followed by a static scan from 120–140 min post injection. Images were reconstructed iteratively using the 3D-OSEM + MAP method (Siemens) and were converted to standardized uptake value (SUV). For the dynamic analysis, 28 frames were reconstructed. Quantification was based on ROI analysis and expressed as SUV.
SUPPLEMENTAL TABLE 1: Tumor-SUVmean values of all mentioned ^18F labeled FAPI-derivatives in HT1080-FAP transplanted nude mice at different time points. The time points 8 min, 22 min and 57 min were selected from the applied 28-frame 3D-OSEM+MAP (Siemens) reconstruction method.

Data set [3] deals with HT-1080-FAP xenografts. Put plainly: Organ distribution (biodistribution) study. The class given is in vivo, BALB/c nu/nu mice. The procedure:
as §2
To reduce radiation exposure, the organ distribution study was performed with 1 MBq per animal. […] The radioactivity was measured using a γ-counter (Packard Cobra II Autogamma, GMI Inc., USA) and expressed as percentage of injected dose per gram of tissue (%ID/g). […]

Data set [4] relates to NSCLC primary tumor and metastases. Description: Clinical PET/CT imaging of a patient with NSCLC. The class given is in vivo, human. Conditions: for SUVmean / SUVmax: primary tumor and metastases; for SUVmax: 323 MBq i.v. The procedure:
[^18F]AlF-FAPI-74 (16.2 GBq/µmol at time of injection) was applied intravenously (20 nmol; 323 MBq) to a patient with NSCLC. The PET/CT scans were performed 1 and 3 h post tracer administration with a Biograph mCT Flow™ PET/CT-Scanner (Siemens Medical Solutions). The parameters used were slice thickness of 5 mm, increment of 3–4 mm, soft-tissue reconstruction kernel and care dose. After CT scanning, a whole-body PET was acquired in 3D (matrix 200 × 200) in FlowMotion™ with 0.7 cm/min. The emission data were corrected for random, scatter and decay. Reconstruction was conducted with an ordered subset expectation maximization (OSEM) algorithm with 2 iterations/21 subsets and Gauss-filtered to a transaxial resolution of 5 mm at full-width half-maximum. Attenuation correction was performed using the low-dose non-enhanced CT data. The quantitative assessment of standardized uptake values (SUV) was done using a region of interest technique.

The mark [5] stands for this setting: small animal PET, HT-1080-FAP xenograft.

T1 sequence (P27487 whole entry): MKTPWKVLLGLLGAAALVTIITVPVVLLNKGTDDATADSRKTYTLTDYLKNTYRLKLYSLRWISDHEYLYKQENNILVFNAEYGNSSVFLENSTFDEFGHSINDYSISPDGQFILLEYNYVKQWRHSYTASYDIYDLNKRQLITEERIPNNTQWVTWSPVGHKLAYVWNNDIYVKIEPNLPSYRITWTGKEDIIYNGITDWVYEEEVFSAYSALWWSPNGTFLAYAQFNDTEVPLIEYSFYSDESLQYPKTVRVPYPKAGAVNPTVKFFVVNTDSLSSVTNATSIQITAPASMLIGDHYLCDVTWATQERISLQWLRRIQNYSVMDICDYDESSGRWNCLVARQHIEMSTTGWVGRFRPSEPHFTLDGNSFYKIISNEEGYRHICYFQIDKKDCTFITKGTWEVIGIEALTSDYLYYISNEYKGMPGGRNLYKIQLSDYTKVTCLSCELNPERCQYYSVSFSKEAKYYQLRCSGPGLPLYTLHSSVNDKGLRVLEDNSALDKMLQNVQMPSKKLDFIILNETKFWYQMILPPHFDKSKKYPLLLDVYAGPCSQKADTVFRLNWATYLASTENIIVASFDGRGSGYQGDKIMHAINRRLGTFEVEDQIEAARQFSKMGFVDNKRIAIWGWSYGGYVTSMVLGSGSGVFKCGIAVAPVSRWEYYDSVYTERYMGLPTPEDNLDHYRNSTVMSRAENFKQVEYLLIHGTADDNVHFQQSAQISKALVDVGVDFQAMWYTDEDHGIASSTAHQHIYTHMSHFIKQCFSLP

As for `N#C[C@@H]1CCCN1C(=O)CNC(=O)c1ccnc2ccc(OCCCN3CCN(C(=O)CN4CCN(CC(=O)O)CCN(CC(=O)O)CC4)CC3)cc12` [FAPI-74], the “uptake CD26” value in data set [1] is reported as 0.18 ± 0.04 %AD/10^6 cells. Moreover, the EC50 at FAP (HT-1080-FAP cells) was determined as 4.2 nM. Moreover, the “Tumor Uptake (SUVmean) 8 min” value in the data set on HT-1080-FAP xenografts [2] (HT1080-FAP transplanted nude mice, 8 min) worked out at 1.58. The “Tumor Uptake (SUVmean) 22 min” value in the data set with HT-1080-FAP xenografts [2] (HT1080-FAP transplanted nude mice, 22 min) worked out at 1.81. In addition, the “Tumor Uptake (SUVmean) 57 min” value with HT-1080-FAP xenografts [2] (HT1080-FAP transplanted nude mice, 57 min) is on record as 1.91. Moreover, in the data set with HT-1080-FAP xenografts [2] (HT1080-FAP transplanted nude mice, 120 min), the “Tumor Uptake (SUVmean) 120 min” value is on record as 1.3. Besides, in the data set on HT-1080-FAP xenografts [2] (small animal PET in tumor bearing mice), the excretion pathway result was “favorable renal excretion”. For the same molecule, the “tumor uptake SUVmean” value in the data set on HT-1080-FAP xenografts [2] (small animal PET screening, discussion) was “approx. 2.0”. Moreover, in the data set on HT-1080-FAP xenografts [2] (setting [5]), the tumor-SUV max is listed as 2.3 and the tumor-SUV mean was determined as 1.9. Also, in the data set on HT-1080-FAP xenografts [3] (after 30 min, HT-1080-FAP bearing Balb/c nu/nu mice), the tumor uptake is reported as 6.9 %ID/g. Further, the early tumor uptake entry in the data set on HT-1080-FAP xenografts [3] (early, discussion) is given as “approximately 7 %ID/g”. Further, the “excretion route in patient” value in data set [4] (non-target tissues and blood pool) was “excreted predominantly via the kidneys”. Moreover, the “SUV in normal tissues” value in data set [4] (normal tissues of the patient) was “almost zero”. In data set [4] (1 h), this molecule registered an SUVmean of 3.3 ± 0.6 and an SUVmax of 6.5 ± 1.1. In addition, in data set [4] (3 h), the SUVmean was found to be 2.75 ± 0.5 and the SUVmax stood at 5.6 ± 0.7.
